Test results as given in patent US10144709B2, “Piperidine compounds, pharmaceutical composition comprising the same and its use” (SK BIOPHARMACEUTICALS CO., LTD., priority 2008, dated 2018).
Counter-ions that a name gives are not always drawn.

Each compound was assayed on ICR CD strain male mice (assay: Gastric emptying enhancing activity (phenol red meal)). Conditions: Mus musculus, ip, 0.25 h, 3.0 mg/kg i.p., gastric emptying at 15 min after test meal, increase vs vehicle.
Type: in vivo
Protocol: ICR CD strain male mice (body weight, 25˜30 g; 8 mice per one group) were fasted for 24 h but allowed free access to water until 3 hours before the test.
Compounds to be tested for promoting GI motility were injected intraperitoneally or given orally at 30 min or 60 min prior to phenol red meal administration. Fifteen (15) min after administration of a test meal (0.5% Phenol red in 1.5% methylcellulose solution), mice were sacrificed and the stomach (pylorus˜cardia) was removed and collected to vial. The stomach was homogenized with its contents in 0.1N NaOH and the mixture was centrifuged (700*g) for 20 min. 2.5 mL of the supernatant was added to 0.25 mL of trichloroacetic acid solution (20% w/v) to precipitate proteins. After centrifuging (2600*g) for 20 min, 0.5 mL of the supernatant was added to 0.25 mL of 1N NaOH. The mixture was homogenized and its absorbance (Abs) was read at 560 nm.
In each experiment, one group was sacrificed just after the administration of the test meal and was considered as a standard (0% emptying). The gastric emptying (GE) at the 15 min period was calculated according to the following formula. GE (%)=(1−Abstest/Absstandard)×100 Increase (%)=(GE %test−GE %vehicle)/GE %vehicle*100
For COc1cc(N)c(Cl)cc1C(=O)NCC1CCN(CCC(NC(=O)O)c2ccc(F)cc2)CC1 (stereo not drawn) [Example 54, [3-[4-[[(4-amino-5-chloro-2-methoxybenzoyl)amino]methyl]piperidin-1-yl]-1-(4-fluorophenyl)propyl]carbamate; hydrochloride], the change in vivo at 3 mg/kg was 89.2%.
Work on COc1cc(N)c(Cl)cc1C(=O)NCC1CCN(CCC(NC(=O)O)c2ccccc2Cl)CC1 (stereo not drawn) [Example 56, [3-[4-[[(4-amino-5-chloro-2-methoxybenzoyl)amino]methyl]piperidin-1-yl]-1-(2-chlorophenyl)propyl]carbamate; hydrochloride] yielded a change in vivo at 3 mg/kg of 135%.
Compound COc1cc(N)c(Cl)cc1C(=O)NCC1CCN(CCC(NC(=O)O)c2cccc(Cl)c2Cl)CC1 (stereo not drawn) [Example 59, [3-[4-[[(4-amino-5-chloro-2-methoxybenzoyl)amino]methyl]piperidin-1-yl]-1-(2,3-dichlorophenyl)propyl]carbamate; hydrochloride] has a change in vivo at 3 mg/kg of 48%.
COc1cc(N)c(Cl)cc1C(=O)NCC1CCN(CCC(NC(=O)O)c2ccc(Cl)cc2Cl)CC1 (stereo not drawn) [Example 60, [3-[4-[[(4-amino-5-chloro-2-methoxybenzoyl)amino]methyl]piperidin-1-yl]-1-(2,4-dichlorophenyl)propyl]carbamate; hydrochloride] was tested, and the change in vivo at 3 mg/kg was 14.2%.
COc1cc(N)c(Cl)cc1C(=O)NCC1CCN(CCC(NC(=O)O)c2ccc(Cl)c(Cl)c2)CC1 (stereo not drawn) [Example 61, [3-[4-[[(4-amino-5-chloro-2-methoxybenzoyl)amino]methyl]piperidin-1-yl]-1-(3,4-dichlorophenyl)propyl]carbamate; hydrochloride] was tested, and the change in vivo at 3 mg/kg was 44.3%.
COc1cc(N)c(Cl)cc1C(=O)NCC1CCN(CCC(NC(=O)O)c2ccc(C(C)C)cc2)CC1 (stereo not drawn) [Example 62, [3-[4-[[(4-amino-5-chloro-2-methoxybenzoyl)amino]methyl]piperidin-1-yl]-1-(4-isopropylphenyl)propyl]carbamate; hydrochloride] showed a change in vivo at 3 mg/kg of 17.9%.
With COc1cccc(C(CCN2CCC(CNC(=O)c3cc(Cl)c(N)cc3OC)CC2)NC(=O)O)c1 (stereo not drawn) [Example 63, [3-[4-[[(4-amino-5-chloro-2-methoxybenzoyl)amino]methyl]piperidin-1-yl]-1-(3-methoxyphenyl)propyl]carbamate; hydrochloride] the change in vivo at 3 mg/kg was 24.4%.
COc1cc(N)c(Cl)cc1C(=O)NCC1CCN(CCC(Cc2ccc(F)cc2)NC(=O)O)CC1 (stereo not drawn) [Example 65, [4-[4-[[(4-amino-5-chloro-2-methoxybenzoyl)amino]methyl]piperidin-1-yl]-1-(4-fluorophenyl)butan-2-yl]carbamate; hydrochloride] showed a change in vivo at 3 mg/kg of 93.1%.
Work on COc1cc(N)c(Cl)cc1C(=O)NCC1CCN(CC(O)COc2ccccc2)CC1 (stereo not drawn) [Example 71, 4-amino-5-chloro-N-[[1-(2-hydroxy-3-phenoxypropyl)piperidin-4-yl]methyl]-2-methoxybenzamide; hydrochloride] yielded a change in vivo at 3 mg/kg of 63.7%.
COc1cc(N)c(Cl)cc1C(=O)NCC1CCN(CC(O)COc2ccc(F)cc2)CC1 (stereo not drawn) [Example 72, 4-amino-5-chloro-N-[[1-[3-(4-fluorophenoxy)-2-hydroxypropyl]piperidin-4-yl]methyl]-2-methoxybenzamide; hydrochloride] gave a change in vivo at 3 mg/kg of 48.1%.
Compound COc1ccc(OCC(O)CN2CCC(CNC(=O)c3cc(Cl)c(N)cc3OC)CC2)cc1 (stereo not drawn) [Example 74, 4-amino-5-chloro-N-[[1-[2-hydroxy-3-(4-methoxyphenoxy)propyl]piperidin-4-yl]methyl]-2-methoxybenzamide; hydrochloride] has a change in vivo at 3 mg/kg of 46.7%.
COc1cc(N)c(Cl)cc1C(=O)NCC1CCN(CC(O)COc2ccc(C(F)(F)F)cc2)CC1 (stereo not drawn) [Example 83, 4-amino-5-chloro-N-[[1-[2-hydroxy-3-[4-(trifluoromethyl)phenoxy]propyl]piperidin-4-yl]methyl]-2-methoxybenzamide; hydrochloride] was tested, and the change in vivo at 3 mg/kg was 42.5%.
For COc1cc(N)c(Cl)cc1C(=O)NCC1CCN(CC(COc2ccccc2)OC(=O)N2CCCCC2)CC1 (stereo not drawn) [Example 88, [1-[4-[[(4-amino-5-chloro-2-methoxybenzoyl)amino]methyl]piperidin-1-yl]-3-phenoxypropan-2-yl]piperidine-1-carboxylate; hydrochloride], the change in vivo at 3 mg/kg was 44.1%.
COc1cc(N)c(Cl)cc1C(=O)NCC1CCN(CC(COc2ccc(F)cc2)OC(=O)N2CC(C)CC(C)C2)CC1 (stereo not drawn) [Example 89, [1-[4-[[(4-amino-5-chloro-2-methoxybenzoyl)amino]methyl]piperidin-1-yl]-3-(4-fluorophenoxy)propan-2-yl]3,5-dimethylpiperidine-1-carboxylate; hydrochloride] was tested, and the change in vivo at 3 mg/kg was 45.3%.
For COc1cc(N)c(Cl)cc1C(=O)NCC1CCN(CC(COc2ccc(Cl)cc2Cl)NC(=O)O)CC1 (stereo not drawn) [Example 96, [1-[4-[[(4-amino-5-chloro-2-methoxybenzoyl)amino]methyl]piperidin-1-yl]-3-(2,4-dichlorophenoxy)propan-2-yl]carbamate; hydrochloride], the change in vivo at 3 mg/kg was 105%.
COc1cc(N)c(Cl)cc1C(=O)NCC1CCN(CC(COc2c(Cl)cccc2Cl)NC(=O)O)CC1 (stereo not drawn) [Example 98, [1-[4-[[(4-amino-5-chloro-2-methoxybenzoyl)amino]methyl]piperidin-1-yl]-3-(2,6-dichlorophenoxy)propan-2-yl]carbamate; hydrochloride] was tested, and the change in vivo at 3 mg/kg was 63.6%.
COc1cc(N)c(Cl)cc1C(=O)NCC1CCN(CC(COc2ccc(Cl)c(Cl)c2)NC(=O)O)CC1 (stereo not drawn) [Example 99, [1-[4-[[(4-amino-5-chloro-2-methoxybenzoyl)amino]methyl]piperidin-1-yl]-3-(3,4-dichlorophenoxy)propan-2-yl]carbamate; hydrochloride] gave a change in vivo at 3 mg/kg of 47.5%.
COc1cc(N)c(Cl)cc1C(=O)NCC1CCN(CC(COc2ccc(C(F)(F)F)cc2)NC(=O)O)CC1 (stereo not drawn) [Example 100, [1-[4-[[(4-amino-5-chloro-2-methoxybenzoyl)amino]methyl]piperidin-1-yl]-3-[4-(trifluoromethyl)phenoxy]propan-2-yl]carbamate; hydrochloride] showed a change in vivo at 3 mg/kg of 46.1%.
In the case of COc1cc(N)c(Cl)cc1C(=O)NCC1CCN(CC(Cc2ccccc2)NC(=O)O)CC1 (stereo not drawn) [Example 103, [1-[4-[[(4-amino-5-chloro-2-methoxybenzoyl)amino]methyl]piperidin-1-yl]-3-phenylpropan-2-yl]carbamate; hydrochloride], the change in vivo at 3 mg/kg is reported as 88.8%.
CC(C)n1c(=O)n(C(=O)NCC2CCN(CC(O)COc3ccccc3)CC2)c2ccccc21 (stereo not drawn) [Example 104, N-[[1-(2-hydroxy-3-phenoxypropyl)piperidin-4-yl]methyl]-2-oxo-3-propan-2-ylbenzimidazole-1-carboxamide; hydrochloride] was tested, and the change in vivo at 3 mg/kg was 81%.
Cn1c(=O)n(C(=O)NCC2CCN(CC(O)COc3ccccc3)CC2)c2ccccc21 (stereo not drawn) [Example 111, N-[[1-(2-hydroxy-3-phenoxypropyl)piperidin-4-yl]methyl]-3-methyl-2-oxobenzimidazole-1-carboxamide; hydrochloride] showed a change in vivo at 3 mg/kg of 37.2%.
COc1ccc(OCC(CN2CCC(CNC(=O)n3c(=O)n(C(C)C)c4ccccc43)CC2)NC(=O)O)cc1 (stereo not drawn) [Example 121, [1-(4-methoxyphenoxy)-3-[4-[[(2-oxo-3-propan-2-ylbenzimidazole-1-carbonyl)amino]methyl]piperidin-1-yl]propan-2-yl]carbamate; hydrochloride] gave a change in vivo at 3 mg/kg of 46.8%.
In the case of CC(C)n1c(=O)n(C(=O)NCC2CCN(CC(COc3ccc(F)cc3)NC(=O)O)CC2)c2ccccc21 (stereo not drawn) [Example 122, [1-(4-fluorophenoxy)-3-[4-[[(2-oxo-3-propan-2-ylbenzimidazole-1-carbonyl)amino]methyl]piperidin-1-yl]propan-2-yl]carbamate; hydrochloride], the change in vivo at 3 mg/kg is reported as 6.8%.
With Cc1ccccc1OCC(CN1CCC(CNC(=O)n2c(=O)n(C(C)C)c3ccccc32)CC1)NC(=O)O (stereo not drawn) [Example 123, [1-(2-methylphenoxy)-3-[4-[[(2-oxo-3-propan-2-ylbenzimidazole-1-carbonyl)amino]methyl]piperidin-1-yl]propan-2-yl]carbamate; hydrochloride] the change in vivo at 3 mg/kg was 56.8%.
In the case of Cn1c(=O)n(C(=O)NCC2CCN(CC(COc3ccccc3)NC(=O)O)CC2)c2ccccc21 (stereo not drawn) [Example 126, [1-[4-[[(3-methyl-2-oxobenzimidazole-1-carbonyl)amino]methyl]piperidin-1-yl]-3-phenoxypropan-2-yl]carbamate; hydrochloride], the change in vivo at 3 mg/kg is reported as 93.3%.
O=C(NCC1CCN(CCC(O)c2ccccc2)CC1)n1c(=O)n(C2CC2)c2ccccc21 (stereo not drawn) [Example 135, 3-cyclopropyl-N-[[1-(3-hydroxy-3-phenylpropyl)piperidin-4-yl]methyl]-2-oxobenzimidazole-1-carboxamide; hydrochloride] gave a change in vivo at 3 mg/kg of 90.3%.
CC(C)n1c(=O)n(C(=O)NCC2CCN(CCC(O)c3ccccc3)CC2)c2ccccc21 (stereo not drawn) [Example 136, N-[[1-(3-hydroxy-3-phenylpropyl)piperidin-4-yl]methyl]-2-oxo-3-propan-2-ylbenzimidazole-1-carboxamide; hydrochloride] was tested, and the change in vivo at 3 mg/kg was 64.1%.
